Laboratory results from patent US20240199624A1, “COMPOUNDS, COMPOSITIONS, AND METHODS” (CHDI Foundation, Inc., priority 2022, published 2024).

Key:
Format in all cases: biochemical
human MutSα = biological target: T1, human MutSα (Homo sapiens, UniProt P43246+P52701); experiment: ADP Glo assay with MutSα (2.1); conditions: 15 nM MutSα/DNA, 30 μM ATP
T1 construct: Msh2(1-934), Gene ID NP_000242.1; Msh6(1-1360), Gene ID NP_001393725.1
Experimental: (§1) ADP Glo assay 2.1: Enzyme human MutSbeta (Msh2(1-934), Gene ID NP_000242.1, Msh3(1-1137), Gene ID J04810.1) with 22 bp biotin-labeled DNA containing a GT-mismatch (purchased from Curia Global, TOP 5′-[…]-3′; BOT 3′-AGTAGCTAGGC - - - CGAAGTCTACC-5′-Biotin) was pre-incubated in assay buffer (25 mM HEPES pH=7.5, 150 mM KCl, 5 mM MgCl2, 5 mM GSH, 0.1% Pluronic F-127, 0.2% Ovalbumin) to allow formation of the enzyme-DNA complex. Plates with spotted compounds in serial dilutions in DMSO (80 nL) were filled with ATP (2 μL, 10 μM final concentration) followed by an incubation of 30 min at RT. Then, enzyme was added (2 μL, 7 nM final concentration) and the reaction was allowed to proceed for 60 min at 37° C. After the ATPase reaction, the commercially available “ADP-Glo Reagent” was added (incubate 40 min at RT) to deplete remaining ATP via the activity of […]. Subsequently, the commercially available “Kinase Detection Reagent” converted ADP to ATP via the activity of PEP and Pyruvate kinase. The ATP was then converted into light by Ultra-Glo Luciferase. The obtained luminescence was proportional to the ADP concentration generated during the initial ATPase reaction. The luminescence signal was measured with an Envision reader, raw data were analyzed towards controls (full reaction=0% inhibition; no reaction in absence of enzyme=100% inhibition) and IC50 curves were analyzed with the inhouse software Aplus.
ADP Glo assay with MutSα (2.1): The ADP Glo assay version 2.1 with the enzyme human MutSα (Msh2(1-934), Gene ID NP_000242.1, Msh6(1-1360), Gene ID NP_001393725.1) was based on the same principle and protocol steps as the MutSβ assay. A 22 bp biotin-labeled DNA containing a GT-mismatch (purchased from Curia Global, TOP 5′-[…]-3′; BOT 3′-AGTAGCTAGGC - - - CGAAGTCTACC-5′-Biotin) was used for binding to MutSα. For this assay, concentrations of enzyme and ATP were optimized to 15 nM MutSα/DNA and 30 μM ATP.

human MutSbeta [1] = biological target: T2, human MutSbeta (Homo sapiens, UniProt P20585+P43246); experiment: ADP Glo assay 1.1; conditions: SPA buffer, no Ovalbumin; enzyme added to compounds before ATP; read-out: ADP Gol 1.1 assay IC50
T2 construct: Msh2(1-934), Gene ID NP_000242.1; Msh3(1-1137), Gene ID J04810.1
Experimental: as §1
ADP Glo assay 1.1: The ADP Glo 2.1 assay was adapted to enable assessment of a more direct interaction of the compound with the enzyme: (1) the SPA buffer was applied (25 mM HEPES pH=7.5, 150 mM KCl, 2 mM MgCl2, 2 mM GSH, 0.01% Tween-20) which contained no decoy Ovalbumin protein. (2) The order of reagent addition was changed, and enzyme was now added directly to the spotted compounds before addition of ATP.

human MutSbeta [2] = biological target: T2, human MutSbeta; experiment: ADP Glo assay 2.1; conditions: 10 μM ATP, 7 nM enzyme; buffer with 5 mM GSH, 0.2% Ovalbumin
Experimental: as §1

human MutSbeta [3] = biological target: T2, human MutSbeta; experiment: P33 SPA; conditions: ATP added to compounds first, then enzyme with DNA; 2 μM ATP, 7 nM enzyme, 60 min 37° C.
Experimental: (§2) P33 SPA: Enzyme human MutSbeta (Msh2(1-934), Gene ID NP_000242.1, Msh3(1-1137), Gene ID J04810.1) and 22 bp biotin-labeled DNA containing a GT-mismatch (purchased from Curia Global, TOP 5′-[…]-3′; BOT 3′-AGTAGCTAGGC - - - CGAAGTCTACC-5′-Biotin) were pre-incubated at equimolar concentration for 15 min at room temperature (“RT”) in assay buffer (25 mM HEPES pH=7.5, 150 mM KCl, 2 mM MgCl2, 2 mM GSH, 0.01% Tween-20). ATP (10 μL, 2× final concentration of γ-[^33P]-ATP (final 0.1 nM; Hartmann Analytic, FF-301) and cold ATP (final 2 μM)) was added to compounds (400 nL spotted as concentration response in 100% DMSO into wells of an OptiPlate) and pre-incubated for 30 min at RT. Then, enzyme with DNA was added (10 μL, 2× final concentration of 7 nM) and incubated for 60 min at 37° C. in a total volume of 20 μL per well. Decay of [^33P] with a half-life of 25.4 days was corrected by increasing the concentration of the labelled nucleotide with the appropriate factor; all steps with radioactive ATP were conducted behind appropriate shielding. Then, 20 μL of a 1:2 mix of ammonium molybdate (20 mg/mL Ammonium molybdate in 2.4 M HCl) and SPA beads (ProteinA SPA beads from Perkin Elmer Cat #RPNQ0019 at 7.5 mg/mL+1% azide) was added per well and incubated at RT for 2 min. Then, 40 μL of 7 M CsCl and 0.1 M citrate was added per well and incubated for 20 h at RT before measuring on the MicroBeta (top read mode, 1 min per well). For full plate processing, all reagents were transferred with a pipettor (Selma, CyBio) apart from the final reagent (CsCl+citrate) which was added with a dispenser (MultiFlo, BioTek). Data analysis during assay development was done with Prism GraphPad.

human MutSbeta [4] = biological target: T2, human MutSbeta; experiment: P33 SPA 1.1; conditions: Table 5A; enzyme first added to compounds, then ATP
Experimental: as §2
P33 SPA 11: For the SPA 1.1 assay, the addition of reagents was reversed, i.e. enzyme was first added to the compounds and pre-incubated followed by ATP addition; thus, the assay was aligned with ADP Glo 1.1 reagent addition order. The assay was repeated under similar conditions, and the results are shown below in Table 5B. It is contemplated the solubility of the compounds and/or varying test occasions may account for variability of assay results.

T2 sequence (P43246 whole entry): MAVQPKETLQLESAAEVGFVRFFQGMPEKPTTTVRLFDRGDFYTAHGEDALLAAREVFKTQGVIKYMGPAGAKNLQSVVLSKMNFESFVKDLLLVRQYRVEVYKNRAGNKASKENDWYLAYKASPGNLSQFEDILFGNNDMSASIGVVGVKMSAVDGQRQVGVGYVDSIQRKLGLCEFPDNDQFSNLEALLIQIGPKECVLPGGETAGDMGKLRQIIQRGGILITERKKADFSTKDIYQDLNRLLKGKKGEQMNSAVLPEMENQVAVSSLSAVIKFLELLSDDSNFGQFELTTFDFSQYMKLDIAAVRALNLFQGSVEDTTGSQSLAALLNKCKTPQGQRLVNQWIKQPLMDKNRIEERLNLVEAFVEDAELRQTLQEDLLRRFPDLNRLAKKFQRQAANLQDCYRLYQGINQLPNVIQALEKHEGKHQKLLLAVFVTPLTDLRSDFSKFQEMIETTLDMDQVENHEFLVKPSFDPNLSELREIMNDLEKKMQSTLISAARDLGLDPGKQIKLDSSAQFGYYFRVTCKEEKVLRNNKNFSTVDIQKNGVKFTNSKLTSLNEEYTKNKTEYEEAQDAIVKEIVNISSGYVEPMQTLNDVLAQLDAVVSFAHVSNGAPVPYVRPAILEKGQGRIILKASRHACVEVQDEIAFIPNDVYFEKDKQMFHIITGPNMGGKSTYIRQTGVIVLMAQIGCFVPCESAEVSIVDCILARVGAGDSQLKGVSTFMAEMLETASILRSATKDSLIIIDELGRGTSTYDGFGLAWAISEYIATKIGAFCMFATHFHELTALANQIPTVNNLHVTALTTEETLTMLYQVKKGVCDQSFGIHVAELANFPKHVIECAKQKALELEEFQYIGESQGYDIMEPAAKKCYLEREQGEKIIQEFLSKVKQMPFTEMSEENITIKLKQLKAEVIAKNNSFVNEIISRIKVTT
T2 sequence (P20585 whole entry): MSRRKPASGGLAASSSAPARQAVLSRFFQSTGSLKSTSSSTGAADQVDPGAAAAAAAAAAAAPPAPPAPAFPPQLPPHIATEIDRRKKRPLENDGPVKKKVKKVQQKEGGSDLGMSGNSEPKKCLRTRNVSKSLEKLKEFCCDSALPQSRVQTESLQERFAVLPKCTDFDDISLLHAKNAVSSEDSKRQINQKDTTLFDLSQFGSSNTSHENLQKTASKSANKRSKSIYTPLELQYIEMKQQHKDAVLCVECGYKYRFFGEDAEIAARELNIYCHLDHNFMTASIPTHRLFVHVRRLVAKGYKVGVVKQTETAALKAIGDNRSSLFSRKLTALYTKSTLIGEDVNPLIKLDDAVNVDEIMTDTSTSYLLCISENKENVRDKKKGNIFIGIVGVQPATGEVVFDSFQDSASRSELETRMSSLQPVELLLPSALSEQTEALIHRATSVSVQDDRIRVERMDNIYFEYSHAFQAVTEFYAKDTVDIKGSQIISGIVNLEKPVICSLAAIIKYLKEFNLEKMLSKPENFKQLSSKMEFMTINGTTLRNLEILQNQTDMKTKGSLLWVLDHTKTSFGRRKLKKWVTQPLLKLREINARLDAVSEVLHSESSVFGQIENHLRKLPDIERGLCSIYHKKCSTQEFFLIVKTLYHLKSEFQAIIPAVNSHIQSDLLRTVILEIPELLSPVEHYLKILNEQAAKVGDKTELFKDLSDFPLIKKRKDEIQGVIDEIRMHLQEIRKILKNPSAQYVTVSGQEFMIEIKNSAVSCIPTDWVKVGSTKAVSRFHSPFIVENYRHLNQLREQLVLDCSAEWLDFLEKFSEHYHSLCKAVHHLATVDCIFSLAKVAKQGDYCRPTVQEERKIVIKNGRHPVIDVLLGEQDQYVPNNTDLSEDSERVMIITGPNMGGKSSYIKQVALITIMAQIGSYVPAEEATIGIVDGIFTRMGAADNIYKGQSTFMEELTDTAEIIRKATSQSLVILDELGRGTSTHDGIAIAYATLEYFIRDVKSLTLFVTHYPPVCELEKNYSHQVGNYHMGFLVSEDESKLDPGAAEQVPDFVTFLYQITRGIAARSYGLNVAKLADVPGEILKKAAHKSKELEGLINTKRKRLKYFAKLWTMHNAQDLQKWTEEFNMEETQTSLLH
T1 sequence (P43246 whole entry): as the sequence (P43246 whole entry) above
T1 sequence (P52701 whole entry): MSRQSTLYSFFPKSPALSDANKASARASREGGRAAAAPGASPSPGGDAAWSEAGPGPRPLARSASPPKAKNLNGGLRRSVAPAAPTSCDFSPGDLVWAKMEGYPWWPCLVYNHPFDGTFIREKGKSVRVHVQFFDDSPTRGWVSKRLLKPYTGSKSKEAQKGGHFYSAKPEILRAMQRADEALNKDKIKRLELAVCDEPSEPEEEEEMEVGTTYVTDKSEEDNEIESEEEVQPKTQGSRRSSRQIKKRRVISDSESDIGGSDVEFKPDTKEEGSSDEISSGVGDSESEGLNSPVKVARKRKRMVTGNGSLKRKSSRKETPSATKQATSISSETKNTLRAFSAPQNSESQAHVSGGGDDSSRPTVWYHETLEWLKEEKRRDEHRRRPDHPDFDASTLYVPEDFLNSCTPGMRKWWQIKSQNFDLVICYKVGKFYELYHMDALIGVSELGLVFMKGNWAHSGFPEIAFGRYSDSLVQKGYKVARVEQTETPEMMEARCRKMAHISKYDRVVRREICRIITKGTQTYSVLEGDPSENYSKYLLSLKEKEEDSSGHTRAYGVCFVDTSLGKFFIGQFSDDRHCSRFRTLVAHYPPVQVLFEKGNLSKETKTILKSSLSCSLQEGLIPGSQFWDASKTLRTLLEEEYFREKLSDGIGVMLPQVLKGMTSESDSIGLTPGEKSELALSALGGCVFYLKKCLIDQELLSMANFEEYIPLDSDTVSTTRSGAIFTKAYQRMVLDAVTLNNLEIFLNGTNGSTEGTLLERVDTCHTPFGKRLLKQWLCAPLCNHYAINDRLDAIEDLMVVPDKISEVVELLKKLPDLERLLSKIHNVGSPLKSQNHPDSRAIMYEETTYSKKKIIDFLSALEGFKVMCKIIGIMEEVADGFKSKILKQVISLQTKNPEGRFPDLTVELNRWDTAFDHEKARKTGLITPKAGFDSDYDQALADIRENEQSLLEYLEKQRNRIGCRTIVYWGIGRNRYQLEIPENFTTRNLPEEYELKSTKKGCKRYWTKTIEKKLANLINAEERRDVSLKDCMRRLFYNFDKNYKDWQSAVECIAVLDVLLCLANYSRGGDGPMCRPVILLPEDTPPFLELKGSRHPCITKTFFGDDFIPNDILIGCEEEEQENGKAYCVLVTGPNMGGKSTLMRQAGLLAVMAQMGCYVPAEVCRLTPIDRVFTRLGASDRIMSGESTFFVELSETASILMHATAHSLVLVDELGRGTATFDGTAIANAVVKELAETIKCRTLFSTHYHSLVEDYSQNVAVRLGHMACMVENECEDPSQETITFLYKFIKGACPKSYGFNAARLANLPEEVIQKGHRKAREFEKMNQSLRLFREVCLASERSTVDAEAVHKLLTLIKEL

| IC50 (human MutSα) [µM] | IC50 (human MutSbeta [1]) [µM] | IC50 (human MutSbeta [2]) [µM] | IC50 (human MutSbeta [3]) [µM] | IC50 (human MutSbeta [4]) [µM] | Compound |
| --- | --- | --- | --- | --- | --- |
| 121 | 64.3 | 152 | 23.8 | 40.5 | CCN1CCN(c2nc(Nc3ccc(Cl)cc3)c3nccnc3n2)CC1 [Compound 4, N-(4-Chlorophenyl)-2-(4-ethylpiperazin-1-yl)pteridin-4-amine] |
| 135 | 54.8 | 67.3 | 28.6 | 55.9 | Cc1ccc(Nc2nc(N3CCN(C)CC3)nc3nccnc23)cc1C [Compound 2, N-(3,4-dimethylphenyl)-2-(4-methylpiperazin-1-yl)pteridin-4-amine] |
